Measurements published in US20090292021A1, “ANTICONVULSIVE PHARMACEUTICAL COMPOSITIONS” (INSERM (INSTITUT NATIONAL DE LA SANTE ET DE LA REC, priority 2006, published 2009).

Legend:
Format in all cases: in vivo, rat
Wistar rats [1] = assay: Indocyanine green (ICG) angiography of choroidal vessels
Experimental: (§1) As described previously Duboc, A., Hanoteau, N., Simonutti, M., Rudolf, G., Nehlig, A., Sahel, J. A., Picaud, S. (2004). “Vigabatrin, the GABA-transaminase inhibitor, damages cone photoreceptors in rats.” Annals of Neurology 55(5): 695-705), Wistar rats Rj Wi IOPS Han were purchased from Janvier Breeding Center (Le Genest St Isle, France) at 7 weeks and acclimatised for 2 weeks. VGB was dissolved in 0.9% NaCl at a concentration of 125 mg/ml. It was injected daily and intraperitonealy at a final dose of 250 mg/kg. To investigate the progression of visual defects with the treatment duration, rats of the same age were divided in five groups and treated with the drug for different times as described in table 1 hereunder.
For ICG angiography, animals were anesthetized as above. A solution of Infracyanine (0.1 ml, 5 mg/ml, Société d'Etude et de Recherche Biologiques, Paris, France) dissolved in distilled water was injected intravenously. Images were obtained with the 795 nm laser light immediately after the injection.

Wistar rats [2] = assay: Flicker ERG recording in VGB-treated rats; conditions: for decrease of flicker ERG amplitude: vs before treatment
Experimental: as §1
Flicker ERGs were recorded on each animal before the treatment, at the end of the VGB treatment, and 4-day later. For the study of functional recovery after VGB withdrawal, flicker ERGs were recorded before the treatment, at 35-day of treatment, 16-day recovery and 60-day recovery period.
Animals were kept in the dark room for at least 12 hours and handled under dim red light. They were anaesthetized by an intraperitoneal (i.p) injection (1 to 1.5 ml/kg) of a solution containing ketamine (40 mg/ml) and xylazine (4 mg/ml Rompum). Pupils were dilated with a drop of 0.5% tropicamide, and the cornea was locally anaesthetized with a drop of 0.4% chlorhydrate d'oxybupropacaïne. Measurements were obtained from the right eye of animals laid on a temperature controlled blanket. The measuring electrode, a gold ring covered with a plastic contact lens, was placed on the cornea and a tight electrical contact was obtained by addition of methylcellulose. The reference and ground electrodes made from needles were subcutaneously inserted at the head and the tail respectively. Finally, the whole animal was placed in a Ganzfeld bowl delivering light stimuli (Toennies Multiliner Vision, Höchberg, Germany). For flickering ERG measurements, animals were adapted for 10 minutes to a white background light at a 25 cdm^−2 to suppress rod responses. Flicker responses were obtained with 50 white light flashes at a 2.5 cdsm^−2 intensity and a 15 Hz flickering frequency (High pass filter 1 Hz and low pass filter 300 Hz). Amplitude and implicit time responses of the flicker ERG were measured at the first maximum positive peak with respect to the light onset.

Wistar rats [3] = assay: Exploration of eye fundus with scanning laser ophthalmoscope (SLO)
Experimental: as §1
Examination of the eye fundus was performed with a Scanning Laser Opthalmoscope (SLO) (HRA, Heidelberg, Dossenheim, Allemagne). Pupils were dilated with a drop of 0.5% tropicamide. During the examination an experimenter hold the animal to point the eye in the axis of camera. To limit animal stress, the duration of examination was minimized and these short sequences were alternated with rests periods. Eye fundus in each animal eye was examined in unanaesthetized rats with the 534 nm laser light beam using a filter to decrease its intensity. Fundus autofluorescence was obtained with the 488 nm laser beam.

Wistar rats [4] = assay: VEGF immunolabeling of retinal sections; conditions: VGB-treated vs control animals
Experimental: as §1
After the animal sacrifice, the cornea was branded at the upper side to orient the eye cup. The eyes were dissected, the cornea and lens removed and a nick was made on the upper side of the eye cup. Eye cups were embedded in OCT (Labonord, Villeneuve d'Ascq, France) to prepare cryosection (Duboc et al 2004, Supra). Dorso-ventral retinal sections passing through the optic nerve were stained with Diamidi-phenyl-indole (DAPI). […] The retinal length showing displaced photoreceptor nuclei was measured on both part of the optic nerve on the retina of VGB-treated rat. […]

Wistar rats [5] = assay: Immunolabeling of retinal sections: cone arrestin (cone count) and G0α (ON bipolar cells); conditions: treated for 45 days
Experimental: as §1
After the animal sacrifice, the cornea was branded at the upper side to orient the eye cup. The eyes were dissected, the cornea and lens removed and a nick was made on the upper side of the eye cup. Eye cups were embedded in OCT (Labonord, Villeneuve d'Ascq, France) to prepare cryosection (Duboc et al 2004, Supra). Dorso-ventral retinal sections passing through the optic nerve were stained with Diamidi-phenyl-indole (DAPI). The DAPI-nuclear staining was visualized on a Leica microscope (20× objective) and digitalized on a camera coupled to optical image analysis software (Analysis program). The retinal length showing displaced photoreceptor nuclei was measured on both part of the optic nerve on the retina of VGB-treated rat.
For immunolabeling, the oriented retinal sections were permeabilized for 5 minutes in PBS containing 0.1% Triton X-100 (Sigma, St Louis, Mo.), rinsed and incubated in PBS containing 1% bovine serum albumin (Eurobio, Les-Ulis, France), 0.1% Tween 20 (Sigma) and 0.1% sodium azide (Merck, Fontenay-Sous-Bois) for 2 hours at room temperature. The primary antibodies added to the solution were incubated for 2 hours at room temperature. Antibodies used were the anti-VEGF rabbit polyclonal antibody (1:400, Ab-1, NeoMarkers, Interchim, France), the monoclonal anti-vimentin antibody (1:400, cloneV9, DAKO, France), the polyclonal mCAR antibody (1:10,000; a gift from Dr Cheryl Craft (Keck School of Medicine of the University of Southern California, Los Angeles, USA)), and the monoclonal anti-G0-α antibody (1:500, Chemicon). After several washes, sections were incubated with the secondary antibodies, goat anti-rabbit IgG conjugated to Alexa TM 594 and goat anti-mouse IgG conjugated to Alexa TM 488 (1:500, (Molecular Probes, Eugene, Oreg.) for 2 hours. The nuclear dye, DAPI, was added in an incubation solution. Sections were mounted with the Fluorsave reagent (Calbiochem, San Diego, Calif.).

Wistar rats [6] = assay: Length of disorganized outer retina on DAPI-stained retinal sections; conditions: treatment of 45 days, mean ± S.E.M, n=8
Experimental: as §1
After the animal sacrifice, the cornea was branded at the upper side to orient the eye cup. The eyes were dissected, the cornea and lens removed and a nick was made on the upper side of the eye cup. Eye cups were embedded in OCT (Labonord, Villeneuve d'Ascq, France) to prepare cryosection (Duboc et al 2004, Supra). Dorso-ventral retinal sections passing through the optic nerve were stained with Diamidi-phenyl-indole (DAPI). […] The retinal length showing displaced photoreceptor nuclei was measured on both part of the optic nerve on the retina of VGB-treated rat.

ICG fluorescence in areas showing modified eye fundus after extravasation (Wistar rats [1]; animals treated for 55 days): inhomogeneous fluorescent image
flicker ERG amplitude (Wistar rats [2]; 15-day treatment, after 4-day recovery period): 51 μV
flicker ERG amplitude (Wistar rats [2]; 25-day treatment, after 4-day recovery period): 38 μV
flicker ERG amplitude (Wistar rats [2]; 35-day treatment, after 4-day recovery period): 50 μV
flicker ERG amplitude (Wistar rats [2]; end of 5-day treatment, 250 mg/kg daily i.p.): 83 μV
flicker ERG amplitude (Wistar rats [2]; end of 15-day treatment, 250 mg/kg daily i.p.): 52 μV
decrease of flicker ERG amplitude (Wistar rats [2]; end of 15-day treatment): 45%
flicker ERG amplitude (Wistar rats [2]; end of 25-day treatment, 250 mg/kg daily i.p.): 21 μV
decrease of flicker ERG amplitude (Wistar rats [2]; end of 25-day treatment): 79%
flicker ERG amplitude (Wistar rats [2]; end of 35-day treatment, 250 mg/kg daily i.p.): 29 μV
decrease of flicker ERG amplitude (Wistar rats [2]; end of 35-day treatment): 71%
flicker ERG amplitude (Wistar rats [2]; recovery study, 35-day treatment, 16-day recovery): 84 μV
reduction of flicker ERG (Wistar rats [2]; recovery study, 35-day treatment, 16-day recovery, vs value before treatment): 31%
flicker ERG amplitude (Wistar rats [2]; recovery study, 35-day treatment, 60-day recovery): 88 μV
reduction of flicker ERG (Wistar rats [2]; recovery study, 35-day treatment, 60-day recovery, vs value before treatment): 28%
flicker ERG amplitude (Wistar rats [2]; recovery study, 35-day treatment, immediately after treatment, n=6): 51 μV
reduction of flicker ERG (Wistar rats [2]; recovery study, 35-day treatment, immediately after treatment, vs beginning of experiment): 58%
modified retinal areas at eye fundus, SLO (Wistar rats [3]; after arresting the VGB treatment for one month (n=2)): remained visible
modified retinal areas (dark/grey network) at eye fundus, green laser SLO (Wistar rats [3]; after treatment of 25 days (n=4), 35 days (n=1) and 55 days (n=4)): present in all animals examined
modified retinal areas at eye fundus, SLO (Wistar rats [3]; animals treated for 5 days (n=1) or 11 days (n=3)): No such modified areas were detected
VEGF expression in retina (Müller glial cells) (Wistar rats [4]): increase in VEGF expression
cone morphology, cone arrestin labelling (Wistar rats [5]): many cones were observed to be truncated
decrease in density of cones vs control rats (Wistar rats [5]; cone arrestin immunolabeling): 18.7%
density of cones (Wistar rats [5]; cone arrestin immunolabeling, n=7): 12.34±0.36 cells/300 μm
length of disorganized outer retina, lower pole (Wistar rats [6]): 70 μm
length of disorganized outer retina, upper pole (Wistar rats [6]): 1106 μm
SMILES: C=CC(N)CCC(=O)O (centres unmarked) [VGB, 4-amino-5-hexenoic acid]
size or aspect of the choroidal vasculature (Wistar rats [1]; after treatment of 25 (n=4) and 55 days (n=4)): no change in the size or aspect of the choroidal vasculature could be detected
retinal autofluorescence, SLO (Wistar rats [3]; 488 nm laser, in vivo): fluorescent spots were observed in the modified areas in two rats
ON bipolar cells labeled with G0α antibody (Wistar rats [5]): some cells were observed to send a process into the ONL
